Test results reported in patent US11026936B2, “Piperidinyl-propanone derivatives” (Merck Patent GmbH, priority 2016, dated 2021).

Columns and labels:
human PDHK2 (12-407) = human PDHK2 (12-407) (Homo sapiens (Human), UniProt Q15119); assay: Isothermal titration calorimetry (ITC) binding; conditions: 30° C., pH 7.5
Description: Isothermal Titration Calorimetry
ITC measurements were performed with a VP-ITC micro calorimeter (Microcal, LLC/GE Healthcare Bio-Sciences AB, Uppsala, Sweden). In general titrations were performed by titrating the protein (50 μM) to the test compound (5 μM) in 12 μl injections. All binding experiments were carried out at 30° C. In general the test compounds were diluted form DMSO stock solutions into the measurement buffer with a maximum final concentration of 1% DMSO. The measurement buffer was 20 mM HEPES, 135 mM KCl, 1 mM TCEP, 2 mM MgCl2, 15 mM NaH2PO4, pH 7.5. The human PDHK2 (12-407) was produced in E. coli as his-tagged protein and purified by affinity chromatography. The tag was removed by side specific proteolysis. Before titration the protein buffer was changed to the measurement buffer containing the same DMSO concentration as the test compound dilution. ITC data analysis was performed using Origin 7 calorimetry software from the same supplier. For most measurements a binding model of one binding site was assumed. According to the applied mathematical model it is possible to calculate the binding constant (KA), the observed binding enthalpy (ΔH^obs) as well as the stoichiometry (N) of the formed complex. Preceding analysis the raw data was corrected for the heats of dilution by extrapolating from the saturation value from the end of titration. In order to allow for direct comparison between the respective experimental series and protein preparations the protein concentration was corrected by referencing titrations to a well behaved standard inhibitor. The apparent stoichiometry values defined the fraction of binding competent protein and compensated for relative errors in protein concentration measurements. This corrected protein concentration was used to set up ITC experiment series with test compounds. Any deviations from ideal 1:1 stoichiometry observed here were attributed to errors in compound concentration. This nominal compound concentration was corrected as well to achieve 1:1 stoichiometry in the fit.

[1] = system: PDH-E1alpha (pSer300) in HEK293T cells; assay: Cellular immunofluorescence assay, PDH-E1alpha (pSer300); format: cell-based; conditions: Homo sapiens, HEK-293T, 5 hours incubation, read-out: IC50 (cell data)
Description: Cellular Assay for Determination of Compound Activities
Compound activities were determined in a cellular immunofluorescence assay. Human HEK293T cells were seeded into black 384-well plates with clear bottom and grown overnight.
Next day, test compounds were added to the wells and the plates incubated for 5 hours. Following this, cells were fixed with formaldehyde, permeabilised and blocked. The primary antibody, Anti-PDH-E1alpha (pSer300), AP1064 (Merck Millipore) was added and incubated overnight in the plate wells. Next, cells were washed and the seconday antibody, Alexa Fluor 488, goat anti-rabbit ab (A-11008, Invitrogen) was added together with Hoechst 33258 (H3569, Invitrogen) and incubated for 1 hour in the plate wells. Finally, cells were washed and the plates were measured on the laser scanning cytometer acumen hci (TTpLabtech).
The raw data were normalized against a pharmacological inhibitor control and dose response curves were generated by plotting the percent effect values using the software package Genedata screener (Genedata).

PDHK2 = PDHK2 (Homo sapiens (Human), UniProt Q15119); assay: Biochemical activity testing of PDHK2: PDC inactivation assay; conditions: human rec PDHK2, PDC from porcine heart, ATP 5 μM; read-out: IC50 PDHK2 (enzyme assay)
Excerpt: Biochemical Activity Testing of PDHK2: PDC Inactivation Assay
The biochemical activity assay for PDHK2 is based on the inactivation of PDC through phosphorylation by PDHK2. The assay is run in two steps: the enzymatic PDHK2 reaction in which isolated PDC is phosphorylated by PDHK2 with ATP as co-substrate and the PDC activity assay in which pyruvate and NAD are converted to acetyl-CoA and NADH. The PDC activity correlates to the increase in NADH and thereby is detectable directly via the increasing fluorescence signal (Exc 340 nm, Em 450 nm). Inhibition of PDHK2 results in a lower phosphorylation status and thereby a less decrease in activity of PDC and a stronger increase in NADH fluorescence signal.
The PDC inactivation assay is performed in Greiner 384-well microtiter plates and is used for high throughput screen. 4 μl of PDHK2 (human, rec, Carna Bioscience, 10 ng/μl-137 nM final concentration) and PDC (isolated from porcine heart, Sigma-Aldrich, 20 mU/ml final concentration) are incubated in the absence or presence of the test compound (10 dilution concentrations) for 30 min at room temperature in kinase buffer (15 mM potassium phosphate buffer, pH 7.0, 60 mM KCl, 1.5 mM DTT, 2.5 mM MgCl2, 0.0125% (w/v) BSA, 0.125% Pluronic F-68). The kinase reaction is started by the addition of 4 μl ATP substrate solution (fc 5 μM in kinase buffer). After 30 min incubation at 37° C. 40 μl of PDC reaction solution (100 mM Tris/HCl, pH 7.8, 0.5 mM EDTA, 1 mM MgCl2, 50 mM NaF, 0.25 mM Coenzyme A, 5 mM pyruvate, 1 mM NAD, 5 mM DTT, 1 mM thiamine pyrophosphate) is added. The first fluorescence measurement is performed on a Perkin Elmer Envision (Exc 340 nm, Em 450 nm). The reaction is incubated for 45 min at room temperature. Afterwards a second fluorescence measurement is performed and the PDC activity is calculated by the difference between both measurements. As full value for the PDHK2 assay the inhibitor-free PDHK2 reaction is used. The pharmacological zero value used is DCA (Sigma-Aldrich) in a final concentration of 3 mM. The inhibitory values (IC50) were determined using either the program Symyx Assay Explorer® or Condosseo® from GeneData.

Compound | Kd (human PDHK2 (12-407)) | IC50 [1] | IC50 (PDHK2)
CC(C)(C)c1nnc(C2(C3CCN(C(=O)[C@@](C)(O)C(F)(F)F)CC3)CC2)o1 [Compound A8, (R)-1-{4-[1-(5-tert-Butyl-[1,3,4]oxadiazol-2-yl)-cyclopropyl]-piperidin-1-yl}-3,3,3-trifluoro-2-hydroxy-2-methyl-propan-1-one] | 650 nM | 8700 nM | 2400 nM
C[C@@H]1CN(C(=O)[C@@](C)(O)C(F)(F)F)CC[C@@H]1C1(c2nnc(-c3ccc(F)cc3)[nH]2)CC1 [Compound A19, (R)-3,3,3-Trifluoro-1-((3S,4S)-4-{1-[5-(4-fluoro-phenyl)-4H-[1,2,4]triazol-3-yl]-cyclopropyl}-3-methyl-piperidin-1-yl)-2-hydroxy-2-methyl-propan-1-one] | 4.2 nM | 28 nM | 75 nM
COc1ccc(-c2nnc(C3([C@H]4CCN(C(=O)[C@@](C)(O)C(F)(F)F)C[C@H]4C)CC3)[nH]2)cn1 [Compound A40, (R)-3,3,3-Trifluoro-2-hydroxy-1-((3S,4S)-4-{1-[5-(6-methoxy-pyridin-3-yl)-4H-[1,2,4]triazol-3-yl]-cyclopropyl}-3-methyl-piperidin-1-yl)-2-methyl-propan-1-one] | 6.5 nM | 25 nM | 91 nM
CC(C)(c1nnc(-c2ccccc2)[nH]1)C1CCN(C(=O)[C@@](C)(O)C(F)(F)F)CC1 [Compound A3, (R)-3,3,3-Trifluoro-2-hydroxy-2-methyl-1-{4-[1-methyl-1-(5-phenyl-4H-[1,2,4]triazol-3-yl)-ethyl]-piperidin-1-yl}-propan-1-one] | 98 nM | 3300 nM | 320 nM
C[C@@H]1CN(C(=O)[C@@](C)(O)C(F)(F)F)CC[C@@H]1C1(c2nnc(-c3ccccc3)o2)CC1 (stereo in doubt) [Compound A16, (R)-3,3,3-Trifluoro-2-hydroxy-2-methyl-1-{(R)-3-methyl-4-[1-(5-phenyl-[1,3,4]oxadiazol-2-yl)-cyclopropyl]-piperidin-1-yl}-propan-1-one] | 4.9 nM | 35 nM | 150 nM
COc1ccc(-c2nnc(C3([C@H]4CCN(C(=O)[C@@](C)(O)C(F)(F)F)C[C@H]4C)CC3)o2)cc1 [Compound A31, (R)-3,3,3-Trifluoro-2-hydroxy-1-((3S,4S)-4-{1-[5-(4-methoxy-phenyl)-[1,3,4]oxadiazol-2-yl]-cyclopropyl}-3-methyl-piperidin-1-yl)-2-methyl-propan-1-one] | 3.6 nM | 17 nM | 180 nM
CC1CN(C(=O)[C@@](C)(O)C(F)(F)F)CCC1C1(c2nnc(-c3ccccc3)o2)CC1 (stereo partly drawn) [Compound A12, (R)-3,3,3-Trifluoro-2-hydroxy-2-methyl-1-{3-methyl-4-[1-(5-phenyl-[1,3,4]oxadiazol-2-yl)-cyclopropyl]-piperidin-1-yl}-propan-1-one] | 8.7 nM | 56 nM | 270 nM
C[C@@](O)(C(=O)N1CCC(C2(c3nnc(-c4ccc(F)cc4)o3)CC2)CC1)C(F)(F)F [Compound A6, (R)-3,3,3-Trifluoro-1-{4-{1-[5-(4-fluoro-phenyl)-[1,3,4]oxadiazol-2-yl]-cyclopropyl}-piperidin-1-yl}-2-hydroxy-2-methyl-propan-1-one] | 270 nM | 2000 nM | 500 nM
C[C@@](O)(C(=O)N1CCC(C2(c3nnc(-c4ccccc4)o3)CC2)CC1)C(F)(F)F [Compound A5, (R)-3,3,3-Trifluoro-2-hydroxy-2-methyl-1-{4-[1-(5-phenyl-[1,3,4]oxadiazol-2-yl)-cyclopropyl]-piperidin-1-yl}-propan-1-one] | 200 nM | 1500 nM | 440 nM
CC(C)(c1nnc(-c2ccccc2)o1)C1CCN(C(=O)[C@@](C)(O)C(F)(F)F)CC1 [Compound A9, (R)-3,3,3-Trifluoro-2-hydroxy-2-methyl-1-{4-[1-methyl-1-(5-phenyl-[1,3,4]oxadiazol-2-yl)-ethyl]-piperidin-1-yl}-propan-1-one] | 50 nM | 650 nM | 720 nM
COc1ccc(-c2nnc(C3([C@H]4CCN(C(=O)[C@@](C)(O)C(F)(F)F)C[C@H]4C)CC3)o2)cn1 [Compound A43, (R)-3,3,3-Trifluoro-2-hydroxy-1-((3S,4S)-4-{1-[5-(6-methoxy-pyridin-3-yl)-[1,3,4]oxadiazol-2-yl]-cyclopropyl}-3-methyl-piperidin-1-yl)-2-methyl-propan-1-one] | 3.8 nM | 16 nM | 100 nM
C[C@@H]1CN(C(=O)[C@@](C)(O)C(F)(F)F)CC[C@@H]1C1(c2nnc(-c3ccc(Cl)cc3)o2)CC1 [Compound A37, (R)-1-((3S,4S)-4-{1-[5-(4-Chloro-phenyl)-[1,3,4]oxadiazol-2-yl]-cyclopropyl}-3-methyl-piperidin-1-yl)-3,3,3-trifluoro-2-hydroxy-2-methyl-propan-1-one] | 2.4 nM | 25 nM | 130 nM
Cc1nnc(C2(C3CCN(C(=O)[C@@](C)(O)C(F)(F)F)CC3)CC2)o1 [Compound A7, (R)-3,3,3-Trifluoro-2-hydroxy-2-methyl-1-{4-[1-(5-methyl-[1,3,4]oxadiazol-2-yl)-cyclopropyl]-piperidin-1-yl}-propan-1-one] | 850 nM | > 30000 nM | 3500 nM
C[C@@H]1CN(C(=O)[C@@](C)(O)C(F)(F)F)CC[C@@H]1C1(c2nnc(-c3ccccc3)[nH]2)CC1 [Compound A14, (R)-3,3,3-Trifluoro-2-hydroxy-2-methyl-1-{(3S,4S)-3-methyl-4-[1-(5-phenyl-4H-[1,2,4]triazol-3-yl)-cyclopropyl]-piperidin-1-yl}-propan-1-one] | < 2 nM | 19 nM | 130 nM
CC1CN(C(=O)[C@@](C)(O)C(F)(F)F)CCC1C1(c2nnc(-c3ccccc3)[nH]2)CC1 (stereo partly drawn) [Compound A11, (R)-3,3,3-Trifluoro-2-hydroxy-2-methyl-1-{3-methyl-4-[1-(5-phenyl-1H-[1,2,4]triazol-3-yl)-cyclopropyl]-piperidin-1-yl}-propan-1-one] | 8.3 nM | 120 nM | 370 nM
C[C@@](O)(C(=O)N1CCC(C2(c3nnc(-c4ccccc4)[nH]3)CC2)CC1)C(F)(F)F [Compound A1, (R)-3,3,3-Trifluoro-2-hydroxy-2-methyl-1-{4-[1-(5-phenyl-1H-[1,2,4]triazol-3-yl)-cyclopropyl]-piperidin-1-yl}-propan-1-one] | 110 nM | 3000 nM | 590 nM
